Results from ChEMBL document CHEMBL5154702, “Synthesis and biological evaluation of aminobenzamides containing purine moiety as class I histone deacetylases inhibitors” (Bioorg Med Chem, 2022).
Active and inactive are the calls of the source. The rule behind the calls is not given here.

How the values were obtained:
HCT-116 [1] = experiment: Cell cycle arrest in human HCT-116 cells assessed as down regulation of Bcl-2 expression at 5 uM by Western blot analysis; assay type: functional, cell-based; conditions: time 6-48 hrs, TDE = time-dependent effect
HCT-116 [2] = experiment: Cell cycle arrest in human HCT-116 cells assessed as down regulation of CDK2 expression measured after 24 hrs by Western blot analysis; assay type: functional, cell-based; conditions: dose 0.1-10 µM, DDE = dose-dependent effect
MDA-MB-231 [3] = experiment: Antiproliferative activity against human MDA-MB-231 cells measured after 48 hrs by MTT assay; assay type: functional, cell-based; conditions: MDA-MB-231, 48 h
SGC-7901 = experiment: Antiproliferative activity against human SGC-7901 cells measured after 48 hrs by MTT assay; assay type: functional, cell-based; conditions: SGC-7901, 48 h
HCT-116 [4] = experiment: Induction of apoptosis in human HCT-116 cells assessed as viable cells at 5 uM measured after 24 hrs by Annexin V-FITC/propidium iodide staining based flow cytometry (reference value: 87.3%); assay type: functional; conditions: read-out: Activity
HCT-116 [5] = experiment: Induction of apoptosis in human HCT-116 cells assessed as necrotic cells at 5 uM measured after 24 hrs by Annexin V-FITC/propidium iodide staining based flow cytometry (reference value: 7.39%); assay type: functional
HCT-116 [6] = experiment: Cell cycle arrest in human HCT-116 cells assessed as increase in accumulation of cells at G0/G1 phase at 10 uM by propidium iodide staining based flow cytometry; assay type: functional; conditions: time 6-24 hrs, TDE = time-dependent effect
HCT-116 [7] = experiment: Cell cycle arrest in human HCT-116 cells assessed as accumulation of cells at G0/G1 phase at 10 uM measured after 24 hrs by propidium iodide staining based flow cytometry (reference value: 58.05%); assay type: functional
[8] = biological target: T1, Protein deacetylase HDAC6 (Homo sapiens, UniProt Q9UBN7); experiment: Inhibition of recombinant human N-terminal GST-tagged HDAC6 (1 to 1215 residues) expressed in Sf9 insect cells using fluorogenic HDAC substrate 3 measured after 30 mins by fluorimetry
T1 sequence (Q9UBN7 whole entry): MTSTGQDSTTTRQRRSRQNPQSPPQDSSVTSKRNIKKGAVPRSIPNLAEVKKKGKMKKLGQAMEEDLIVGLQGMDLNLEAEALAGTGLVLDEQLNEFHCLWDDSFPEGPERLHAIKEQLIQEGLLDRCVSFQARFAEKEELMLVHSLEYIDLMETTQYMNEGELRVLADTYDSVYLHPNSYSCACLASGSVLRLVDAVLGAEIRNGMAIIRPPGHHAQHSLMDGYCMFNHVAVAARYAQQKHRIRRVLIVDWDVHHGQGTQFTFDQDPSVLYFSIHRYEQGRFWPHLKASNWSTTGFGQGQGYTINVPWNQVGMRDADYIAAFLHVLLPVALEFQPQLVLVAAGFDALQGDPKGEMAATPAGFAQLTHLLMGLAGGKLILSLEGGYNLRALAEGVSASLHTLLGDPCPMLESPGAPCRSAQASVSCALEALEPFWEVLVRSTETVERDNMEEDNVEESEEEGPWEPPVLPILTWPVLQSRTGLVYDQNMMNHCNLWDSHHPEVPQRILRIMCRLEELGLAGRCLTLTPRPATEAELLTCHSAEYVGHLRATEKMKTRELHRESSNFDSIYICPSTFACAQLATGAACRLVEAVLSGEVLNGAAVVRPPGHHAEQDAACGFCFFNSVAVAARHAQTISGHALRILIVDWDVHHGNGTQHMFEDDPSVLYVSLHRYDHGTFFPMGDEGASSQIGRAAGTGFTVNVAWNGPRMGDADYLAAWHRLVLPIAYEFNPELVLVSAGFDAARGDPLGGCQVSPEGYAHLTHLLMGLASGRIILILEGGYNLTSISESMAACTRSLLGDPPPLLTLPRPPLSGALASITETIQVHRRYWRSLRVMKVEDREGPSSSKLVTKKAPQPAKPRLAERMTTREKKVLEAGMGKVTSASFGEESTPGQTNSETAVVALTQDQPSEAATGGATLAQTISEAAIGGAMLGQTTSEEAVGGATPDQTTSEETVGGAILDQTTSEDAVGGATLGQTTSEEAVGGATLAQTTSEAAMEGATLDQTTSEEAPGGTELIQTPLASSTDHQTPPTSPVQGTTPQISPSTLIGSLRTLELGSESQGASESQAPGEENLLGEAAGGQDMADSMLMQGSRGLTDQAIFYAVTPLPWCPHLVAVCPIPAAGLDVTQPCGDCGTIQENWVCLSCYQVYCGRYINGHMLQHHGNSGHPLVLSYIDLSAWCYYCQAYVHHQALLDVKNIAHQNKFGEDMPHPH

HCT-116 [9] = experiment: Induction of apoptosis in human HCT-116 cells assessed as early apoptotic cells at 1 uM measured after 24 hrs by Annexin V-FITC/propidium iodide staining based flow cytometry (reference value: 1.87%); assay type: functional
HCT-116 [10] = experiment: Induction of apoptosis in human HCT-116 cells assessed as late apoptotic cells at 1 uM measured after 24 hrs by Annexin V-FITC/propidium iodide staining based flow cytometry (reference value: 3.43%); assay type: functional
HCT-116 [11] = experiment: Cell cycle arrest in human HCT-116 cells assessed as accumulation of cells at G2/M phase at 10 uM measured after 12 hrs by propidium iodide staining based flow cytometry (reference value: 22.74%); assay type: functional
MDA-MB-231 [12] = experiment: Potency index, ratio of MS-275 IC50 to test compound IC50 for antiproliferative activity against human MDA-MB-231 cells; assay type: functional
[13] = Intrinsic clearance in rat liver microsomes assessed per mg protein at 13.8 uM by HPLC analysis; assay type: ADME, Microsome
HCT-116 [14] = experiment: Induction of cell morphological changes in human HCT-116 cells assessed as nuclear fragmentation at 0.5 to 5 uM measured after 24 hrs by Hoechst 33258 staining based fluorescence microscopy; assay type: functional; conditions: dose 0.5-5 µM
HCT-116 [15] = experiment: Induction of apoptosis in human HCT-116 cells assessed as viable cells at 0.5 uM measured after 24 hrs by Annexin V-FITC/propidium iodide staining based flow cytometry (reference value: 87.3%); assay type: functional; conditions: read-out: Activity
HCT-116 [16] = experiment: Cell cycle arrest in human HCT-116 cells assessed as accumulation of cells at G2/M phase at 0.5 uM measured after 24 hrs by propidium iodide staining based flow cytometry (reference value: 22.74%); assay type: functional
MDA-MB-231 [17] = experiment: Potency index, ratio of SAHA IC50 to test compound IC50 for antiproliferative activity against human MDA-MB-231 cells; assay type: functional
[18] = biological target: Histone deacetylase 1/2/3 (Homo sapiens) (UniProt Q13547+O15379+Q92769); experiment: Inhibition of HDAC1/HDAC2/HDAC3 in human HCT-116 cells assessed as increase in accumulation of acetylated H4K5 measured after 24 hrs by Western blot analysis; assay type: cell-based; conditions: dose 0.1-10 µM, DDE = dose-dependent effect
HCT-116 [19] = experiment: Cell cycle arrest in human HCT-116 cells assessed as increase in accumulation of cells at G0/G1 phase measured after 24 hrs by propidium iodide staining based flow cytometry; assay type: functional; conditions: dose 0.1-10 µM, DDE = dose-dependent effect
HCT-116 [20] = experiment: Induction of apoptosis in human HCT-116 cells assessed as viable cells at 1 uM measured after 24 hrs by Annexin V-FITC/propidium iodide staining based flow cytometry (reference value: 87.3%); assay type: functional; conditions: read-out: Activity
HCT-116 [21] = experiment: Induction of cell morphological changes in human HCT-116 cells assessed as cell vacuolization at 0.5 to 5 uM measured after 24 hrs by phase contrast microscopy; assay type: functional, cell-based; conditions: dose 0.5-5 µM

CCCCNc1nc(Cl)nc2c1ncn2Cc1ccc(C(=O)Nc2ccccc2N)cc1
Activity (HCT-116 [1]): Tde
Activity (HCT-116 [2]): Dde
IC50 (MDA-MB-231 [3]): 0.38 µM
IC50 (SGC-7901): 1.52 µM
viability at 5 µM (HCT-116 [4]): 18.4%
Activity (HCT-116 [5]): 0.902%
Activity (HCT-116 [6]): Tde
Activity (HCT-116 [7]): 73.05%
IC50 [8]: 34.2 µM
Activity (HCT-116 [9]): 49.4%
Activity (HCT-116 [10]): 8.94%
Activity (HCT-116 [11]): 18.82%
Ratio IC50 (MDA-MB-231 [12]): 4
CLint [13]: 9.6 µL/min/mg
Activity (HCT-116 [14]): Active
viability at 0.5 µM (HCT-116 [15]): 64.3%
Activity (HCT-116 [16]): 20.23%
Ratio IC50 (MDA-MB-231 [17]): 4
inhibition [18]: Dde
Activity (HCT-116 [19]): Dde
viability at 1 µM (HCT-116 [20]): 40.4%
Activity (HCT-116 [21]): Active
